Source: patent US11998537B2, “Substituted indole dimer compounds” (BRISTOL-MYERS SQUIBB COMPANY, priority 2018, dated 2024)
pIC50: −log10 of the molar value.

Tests used:
Assay type in all cases: cell-based
[1] = target: T1, human TLR7 (Homo sapiens, UniProt Q9NYK1); experiment: TLR7 inhibition reporter assay (HEK-Blue SEAP); conditions: HEK-Blue cells overexpressing human TLR7, gardiquimod 7.5 μM, 22 hour incubation
T1 construct: host or cells: HEK-Blue cells (HEK293-derived reporter line)
T1 sequence (Q9NYK1 27-1049): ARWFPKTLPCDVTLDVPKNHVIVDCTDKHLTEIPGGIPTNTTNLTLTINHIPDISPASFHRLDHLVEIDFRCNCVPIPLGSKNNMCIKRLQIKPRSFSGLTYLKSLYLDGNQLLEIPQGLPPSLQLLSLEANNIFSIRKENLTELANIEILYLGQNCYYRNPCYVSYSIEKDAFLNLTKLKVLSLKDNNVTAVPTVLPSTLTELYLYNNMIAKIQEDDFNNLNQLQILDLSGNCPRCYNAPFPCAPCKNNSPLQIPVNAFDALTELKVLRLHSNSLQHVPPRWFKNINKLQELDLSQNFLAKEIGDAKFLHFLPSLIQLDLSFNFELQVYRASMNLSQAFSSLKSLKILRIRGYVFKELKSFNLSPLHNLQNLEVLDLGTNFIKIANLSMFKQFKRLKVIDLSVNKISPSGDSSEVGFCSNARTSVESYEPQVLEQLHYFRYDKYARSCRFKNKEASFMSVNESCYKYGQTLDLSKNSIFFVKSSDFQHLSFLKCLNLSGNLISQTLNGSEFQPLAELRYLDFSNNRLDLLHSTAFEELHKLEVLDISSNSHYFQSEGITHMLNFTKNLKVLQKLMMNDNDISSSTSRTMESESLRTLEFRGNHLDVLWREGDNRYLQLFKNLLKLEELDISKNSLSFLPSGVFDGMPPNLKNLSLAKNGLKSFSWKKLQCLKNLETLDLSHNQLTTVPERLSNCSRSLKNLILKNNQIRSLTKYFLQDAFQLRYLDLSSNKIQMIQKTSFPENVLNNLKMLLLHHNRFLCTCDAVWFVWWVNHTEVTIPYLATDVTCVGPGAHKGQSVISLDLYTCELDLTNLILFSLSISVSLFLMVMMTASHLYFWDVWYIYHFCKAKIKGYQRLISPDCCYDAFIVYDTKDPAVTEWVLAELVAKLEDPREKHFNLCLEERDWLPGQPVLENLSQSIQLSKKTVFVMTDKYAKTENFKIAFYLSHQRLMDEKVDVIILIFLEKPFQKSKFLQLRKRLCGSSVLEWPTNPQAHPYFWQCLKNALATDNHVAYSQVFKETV
Method: (§1) TLR7/8/9 Inhibition Reporter Assays
(§2) HEK-Blue™-cells (Invivogen) overexpressing human TLR7, TLR8 or TLR9 receptors were used for screening inhibitors of these receptors using an inducible SEAP (secreted embryonic alkaline phosphatase) reporter gene under the control of the IFN-β minimal promoter fused to five NF-κB and AP-1-binding sites. Briefly, cells are seeded into Greiner 384 well plates (15000 cells per well for TLR7, 20,000 for TLR8 and 25,000 for TLR9) and then treated with test compounds in DMSO to yield a final dose response concentration range of 0.05 nM-50 μM. After a 30 minute compound pre-treatment at room temperature, the cells are then stimulated with a TLR7 ligand (gardiquimod at a final concentration of 7.5 μM), TLR8 ligand (R848 at a final concentration of 15.9 μM) or TLR9 ligand (ODN2006 at a final concentration of 5 nM) to activate NF-κB and AP-1 which induce the production of SEAP. After a 22 hour incubation at 37° C., 5% CO2, SEAP levels are determined with the addition of HEK-Blue™ Detection reagent (Invivogen), a cell culture medium that allows for detection of SEAP, according to manufacturer's specifications. The percent inhibition is determined as the % reduction in the HEK-Blue signal present in wells treated with agonist plus DMSO alone compared to wells treated with a known inhibitor.

[2] = target: T2, human TLR8 (Homo sapiens, UniProt Q9NR97); experiment: TLR8 inhibition reporter assay (HEK-Blue SEAP); conditions: HEK-Blue cells overexpressing human TLR8, R848 15.9 μM, 22 hour incubation
T2 construct: host or cells: HEK-Blue cells (HEK293-derived reporter line)
T2 sequence (Q9NR97 27-1041): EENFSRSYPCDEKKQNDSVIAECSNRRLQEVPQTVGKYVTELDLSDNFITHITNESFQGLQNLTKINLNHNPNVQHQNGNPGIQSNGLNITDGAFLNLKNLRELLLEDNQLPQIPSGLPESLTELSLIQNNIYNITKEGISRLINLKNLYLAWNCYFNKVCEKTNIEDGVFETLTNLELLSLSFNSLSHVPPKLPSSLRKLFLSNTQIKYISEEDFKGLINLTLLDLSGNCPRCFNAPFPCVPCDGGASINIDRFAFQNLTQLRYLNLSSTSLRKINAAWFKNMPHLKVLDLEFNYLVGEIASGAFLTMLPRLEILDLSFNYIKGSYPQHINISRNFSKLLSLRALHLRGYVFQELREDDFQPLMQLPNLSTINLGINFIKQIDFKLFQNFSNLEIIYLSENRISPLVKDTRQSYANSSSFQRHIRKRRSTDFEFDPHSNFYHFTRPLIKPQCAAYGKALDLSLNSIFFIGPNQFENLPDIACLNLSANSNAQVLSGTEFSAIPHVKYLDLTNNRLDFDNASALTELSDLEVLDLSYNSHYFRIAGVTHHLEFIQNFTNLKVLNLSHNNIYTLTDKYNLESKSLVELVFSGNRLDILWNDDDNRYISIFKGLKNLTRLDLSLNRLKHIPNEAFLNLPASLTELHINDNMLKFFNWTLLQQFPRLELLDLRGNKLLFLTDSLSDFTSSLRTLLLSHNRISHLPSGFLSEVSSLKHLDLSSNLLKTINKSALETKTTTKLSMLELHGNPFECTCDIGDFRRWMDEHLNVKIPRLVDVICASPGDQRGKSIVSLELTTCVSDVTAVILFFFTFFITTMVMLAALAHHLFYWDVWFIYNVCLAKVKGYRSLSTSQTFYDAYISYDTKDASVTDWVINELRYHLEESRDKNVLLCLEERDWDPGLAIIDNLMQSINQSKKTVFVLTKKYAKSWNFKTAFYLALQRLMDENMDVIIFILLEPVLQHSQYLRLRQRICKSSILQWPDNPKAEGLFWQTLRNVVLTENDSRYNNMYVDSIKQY
Method: as §1, §2

[3] = target: T3, human TLR9 (Homo sapiens, UniProt Q9NR96); experiment: TLR9 inhibition reporter assay (HEK-Blue SEAP); conditions: HEK-Blue cells overexpressing human TLR9, ODN2006 5 nM, 22 hour incubation
T3 construct: host or cells: HEK-Blue cells (HEK293-derived reporter line)
T3 sequence (Q9NR96 26-1032): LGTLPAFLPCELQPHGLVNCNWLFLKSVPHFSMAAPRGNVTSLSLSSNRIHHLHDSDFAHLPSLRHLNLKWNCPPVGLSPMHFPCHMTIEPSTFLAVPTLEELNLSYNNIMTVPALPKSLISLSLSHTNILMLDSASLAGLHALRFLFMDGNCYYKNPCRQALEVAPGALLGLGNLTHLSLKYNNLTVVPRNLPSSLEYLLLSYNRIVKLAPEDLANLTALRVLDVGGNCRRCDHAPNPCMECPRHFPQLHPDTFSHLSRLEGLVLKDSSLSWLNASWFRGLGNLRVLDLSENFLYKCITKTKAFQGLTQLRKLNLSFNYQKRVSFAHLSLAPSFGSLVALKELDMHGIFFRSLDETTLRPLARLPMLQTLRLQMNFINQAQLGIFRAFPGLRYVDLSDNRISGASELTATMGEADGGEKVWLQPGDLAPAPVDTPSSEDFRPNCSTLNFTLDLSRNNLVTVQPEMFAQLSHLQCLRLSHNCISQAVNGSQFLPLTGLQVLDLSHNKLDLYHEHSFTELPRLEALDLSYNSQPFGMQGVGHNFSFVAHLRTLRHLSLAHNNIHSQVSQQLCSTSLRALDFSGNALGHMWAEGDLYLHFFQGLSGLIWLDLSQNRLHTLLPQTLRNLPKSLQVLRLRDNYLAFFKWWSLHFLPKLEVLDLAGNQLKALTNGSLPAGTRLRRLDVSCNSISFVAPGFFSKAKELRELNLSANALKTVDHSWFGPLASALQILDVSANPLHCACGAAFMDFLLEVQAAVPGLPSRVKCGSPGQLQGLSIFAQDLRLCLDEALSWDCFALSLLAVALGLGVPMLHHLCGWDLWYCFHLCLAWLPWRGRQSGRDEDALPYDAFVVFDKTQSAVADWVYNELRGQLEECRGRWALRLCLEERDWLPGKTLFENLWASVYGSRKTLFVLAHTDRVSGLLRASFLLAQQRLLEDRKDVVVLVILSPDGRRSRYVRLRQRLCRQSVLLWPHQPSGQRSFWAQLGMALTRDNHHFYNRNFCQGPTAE
Method: as §1, §2

SMILES	pIC50 [1]	pIC50 [2]	pIC50 [3]
COc1cc(-c2[nH]c3ccc(C4CCN(C(=O)CCCCCCCCCCCCCCCCC(=O)N5CCC(c6ccc7[nH]c(-c8cc(OC)c9ncnn9c8)c(C(C)C)c7c6)CC5)CC4)cc3c2C(C)C)cn2ncnc12 [Comparator Compound C1, 1,18-bis(4-(3-isopropyl-2-(8-methoxy-[1,2,4]triazolo[1,5-a]pyridin-6-yl)-1H-indol-5-yl)piperidin-1-yl)octadecane-1,18-dione, reference compound]	< 5.51	≤ 5.51	< 4.30
COc1cc(-c2[nH]c3ccc(C4CCN(C(=O)CCCCCCCCCCCCCCCCCC(=O)N5CCC(c6ccc7[nH]c(-c8cc(OC)c9ncnn9c8)c(C(C)C)c7c6)CC5)CC4)cc3c2C(C)C)cn2ncnc12 [Comparator Compound C3, reference compound]	< 5.51	< 5.51	< 4.30
COc1cc(-c2[nH]c3ccc(C4CCN(CCN)CC4)cc3c2C(C)C)cn2ncnc12 [Comparator Compound C4, 2-(4-(3-isopropyl-2-(8-methoxy-[1,2,4]triazolo[1,5-a]pyridin-6-yl)-1H-indol-5-yl)piperidin-1-yl)ethan-1-amine, reference compound]	9.22	8.68	5.70
COc1cc(-c2[nH]c3ccc(C4CCN(CCNC(C)=O)CC4)cc3c2C(C)C)cn2ncnc12 [Comparator Compound C5, N-(2-(4-(3-isopropyl-2-(8-methoxy-[1,2,4]triazolo[1,5-a]pyridin-6-yl)-1H-indol-5-yl)piperidin-1-yl)ethyl)acetamide, reference compound]	9.02	8.74	5.45
COc1cc(-c2[nH]c3ccc(C4CCN(CCNC(=O)CCCCCCCCCCCC(=O)NCCN5CCC(c6ccc7[nH]c(-c8cc(OC)c9ncnn9c8)c(C(C)C)c7c6)CC5)CC4)cc3c2C(C)C)cn2ncnc12 [Example 1, N1,N13-bis(2-(4-(3-isopropyl-2-(8-methoxy-[1,2,4]triazolo[1,5-a]pyridin-6-yl)-1H-indol-5-yl)piperidin-1-yl)ethyl)tridecanediamide]	9.04	8.85	6.92
COc1cc(-c2[nH]c3ccc(C4CCN(CCNC(=O)CCCCCCCCCCCCC(=O)NCCN5CCC(c6ccc7[nH]c(-c8cc(OC)c9ncnn9c8)c(C(C)C)c7c6)CC5)CC4)cc3c2C(C)C)cn2ncnc12 [Example 2, N1,N14-bis(2-(4-(3-isopropyl-2-(8-methoxy-[1,2,4]triazolo[1,5-a]pyridin-6-yl)-1H-indol-5-yl)piperidin-1-yl)ethyl)tetradecanediamide]	8.72	8.80	6.83

Next, values leading:

pIC50 [1]	pIC50 [2]	pIC50 [3]	SMILES
9.51	9.49	7.00	COc1cc(-c2[nH]c3ccc(C4CCN(CCNC(=O)CCCCCCCCCCC(=O)NCCN5CCC(c6ccc7[nH]c(-c8cc(OC)c9ncnn9c8)c(C(C)C)c7c6)CC5)CC4)cc3c2C(C)C)cn2ncnc12 [Example 3, N1,N12-bis(2-(4-(3-isopropyl-2-(8-methoxy-[1,2,4]triazolo[1,5-a]pyridin-6-yl)-1H-indol-5-yl)piperidin-1-yl)ethyl)dodecanediamide]
9.60	9.66	7.03	COc1cc(-c2[nH]c3ccc(C4CCN(CCNC(=O)CCCCCCCCCC(=O)NCCN5CCC(c6ccc7[nH]c(-c8cc(OC)c9ncnn9c8)c(C(C)C)c7c6)CC5)CC4)cc3c2C(C)C)cn2ncnc12 [Example 4, N1,N11-bis(2-(4-(3-isopropyl-2-(8-methoxy-[1,2,4]triazolo[1,5-a]pyridin-6-yl)-1H-indol-5-yl)piperidin-1-yl)ethyl)undecanediamide]
9.82	9.74	6.85	COc1cc(-c2[nH]c3ccc(C4CCN(CCNC(=O)CCCCCCCC(=O)NCCN5CCC(c6ccc7[nH]c(-c8cc(OC)c9ncnn9c8)c(C(C)C)c7c6)CC5)CC4)cc3c2C(C)C)cn2ncnc12 [Example 5, N1,N9-bis(2-(4-(3-isopropyl-2-(8-methoxy-[1,2,4]triazolo[1,5-a]pyridin-6-yl)-1H-indol-5-yl)piperidin-1-yl)ethyl)nonanediamide]
